In paper PMC5090206, “Fluselenamyl: A Novel Benzoselenazole Derivative for PET Detection of Amyloid Plaques (Aβ) in Alzheimer’s Disease” (Scientific Reports, 2016):

Columns and labels:
AD homogenates = AD homogenates (Homo sapiens, UniProt P05067); test: Saturation binding of [18F]-9 with AD homogenates
Procedure: (§1) For assessing the ability of [^18F]-9 to bind Aβ plaques; binding assays with either AD homogenates or preformed Aβ1–42 aggregates were performed in 30 mM Tris, pH 7.4 buffer supplemented with 0.1% BSA[39]. Nonspecific binding was determined in the presence of 5 (1 μM) as a competitor.
Scientific Reports Version of August 4, 2016 other neurodegenerative diseases (SI, Figure 4A & 4B). Sections were visualized, processed, and analyzed using a Pascal confocal microscope.
Preparation of Human Brain Homogenates.
Well-established literature procedures were used for preparation of AD homogenates. 11,12 Grey matter was isolated from frozen postmortem frontal cortex tissue by dissection with a scalpel. […]
(§2) Binding assays were performed using previously described methods.11 Briefly, a fixed concentration (0.25 µM/well) of Aβ1–42 fibrils was incubated for 1 h at 37 °C with increasing concentrations of [18F]-9 (0.1 nM-15 nM) in 30 mM Tris-HCl pH 7.4, 0.1% BSA in a reaction volume of 150 µl. […] The exact hot:cold ([18F]-9 : 5) ratio was measured in each experiment by counting an aliquot of a sample (2 µl) of the radioligand preparation in a scintillation counter. Binding of [18F]-9 to human brain homogenates was assessed by incubating samples of insoluble fraction (1.25 µg insoluble protein/well) from AD subjects, with increasing concentrations of [18F]-9 (0.1nM-18 nM) for 1 h at 37 °C. Nonspecific binding was determined in parallel experiments in the presence of 5 (1 µM) as a competitor. […] Glass fiber filters containing the bound ligand were mixed with Optiphase Supermix scintillation cocktail (150µl; PerkinElmer) and counted immediately.
All data were obtained in triplicate and analyzed by curve fitting to a one-site binding model using nonlinear regression employing Graphpad Prism software (version 4.0) to determine Kd and Bmax values.
(§3) Bmax values were calculated in pmol/gram wet weight of brain tissue. […]

Aβ1–42 fibrils = molecular target: T1, Aβ1–42 fibrils (Homo sapiens, UniProt P05067); test: Saturation binding of [18F]-9 with Aβ1–42 fibrils
T1 construct: Commercially available amyloid peptide Aβ1-42; purchased
T1 sequence (P05067 672-713 limits assumed): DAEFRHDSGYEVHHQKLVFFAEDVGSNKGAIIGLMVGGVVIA
Procedure: as §1
Scientific Reports Version of August 4, 2016
as §2, with “immediately. […]” for “immediately.”
as §3

[1] = Human serum stability by radio-HPLC; type: in vitro ADME; details: 37 °C
Source text: For biomedical imaging applications, the signal is a net function of target/background ratio. In PET imaging, this signal results from detection of γ-photons arising from annihilation events of positrons and imaging resolution is also dependent upon energy associated with a given radionuclide. Resultant radioactive metabolites could also contribute to nonspecific binding or compete with the parental tracer for binding to the target. Therefore, it is also important to investigate metabolic stability of the radiotracer to explicitly confirm whether or not biochemical targeting profiles of a given tracer are driven by a parental molecular imaging probe. […]
Binding assays were performed using previously described methods.11 Briefly, a fixed concentration (0.25 µM/well) of Aβ1–42 fibrils was incubated for 1 h at 37 °C with increasing concentrations of [18F]-9 (0.1 nM-15 nM) in 30 mM Tris-HCl pH 7.4, 0.1% BSA in a reaction volume of 150 µl. […] The exact hot:cold ([18F]-9 : 5) ratio was measured in each experiment by counting an aliquot of a sample (2 µl) of the radioligand preparation in a scintillation counter. Binding of [18F]-9 to human brain homogenates was assessed by incubating samples of insoluble fraction (1.25 µg insoluble protein/well) from AD subjects, with increasing concentrations of [18F]-9 (0.1nM-18 nM) for 1 h at 37 °C. […]

Lipophilicity (log P) = type: physicochemical; details: octanol/water
[2] = 30 mM Tris pH 7.4, 0.1% BSA, one-site model

AD homogenates, sequence (P05067 672-711 limits assumed): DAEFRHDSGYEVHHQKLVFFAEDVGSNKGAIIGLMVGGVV

Compound: CN(C)c1ncc(/C=C\c2nc3cc(OCC[18F])ccc3[se]2)cn1 [[^18F]-9]
- Bmax (AD homogenates): 546 pmol/g wet wt.
- binding affinity higher than approved FDA tracers (AD homogenates): 2–10 fold
- Kd (AD homogenates; [2]): 1.7 nM
- Bmax (Aβ1–42 fibrils): 1.3 pmol/nmol
- Kd (Aβ1–42 fibrils; [2]): 1.6 nM
- presence of parental tracer (single radio-peak) in human serum [1]: up to 3 h
- presence of parental tracer (single radio-peak) in human serum ([1]; listed as 18F-9): 3 h
- logP (Lipophilicity (log P)): 1.28
